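Following 48 hours of exposure in 96-well plates, responses at five concentrations were used to interpolate endpoints linearly. GI50 = concentration required for 50% inhibition of growth. TGI marks complete inhibition of growth.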
Columns and labels:
Experiment in all cases: NCI tumour cell line growth inhibition, 48 h
MDA-MB-231 breast = system: MDA-MB-231 breast
CAKI-1 renal = system: CAKI-1 renal
NCI-H522 lung = system: NCI-H522 lung
SK-OV-3 ovarian = system: SK-OV-3 ovarian
SK-MEL-28 melanoma = system: SK-MEL-28 melanoma
SK-MEL-2 melanoma = system: SK-MEL-2 melanoma
A549 NSCLC = system: A549 NSCLC
T-47D breast = system: T-47D breast
K-562 leukemia = system: K-562 leukemia
M14 melanoma = system: M14 melanoma
UACC-62 melanoma = system: UACC-62 melanoma
MCF7 breast = system: MCF7 breast
SR leukemia = system: SR leukemia
MDA-MB-435 = system: MDA-MB-435
OVCAR-8 ovarian = system: OVCAR-8 ovarian
A498 renal = system: A498 renal
COLO 205 colon = system: COLO 205 colon
UACC-257 melanoma = system: UACC-257 melanoma
CCRF-CEM leukemia = system: CCRF-CEM leukemia
MALME-3M melanoma = system: MALME-3M melanoma
PC-3 prostate = system: PC-3 prostate
DU-145 prostate = system: DU-145 prostate
HCT-116 colon = system: HCT-116 colon
KM12 colon = system: KM12 colon
HCC-2998 colon = system: HCC-2998 colon
HCT-15 colon = system: HCT-15 colon
SNB-75 CNS = system: SNB-75 CNS
SF-295 CNS = system: SF-295 CNS
HL-60(TB) leukemia = system: HL-60(TB) leukemia

Oc1cccc(-c2nc(-c3n[nH]c(=S)n3-c3ccccc3)cc3c2[nH]c2ccccc23)c1
GI50 (MDA-MB-231 breast): 3.19 µM | TGI (MDA-MB-231 breast): 13 µM | GI50 (CAKI-1 renal): 2.81 µM | TGI (CAKI-1 renal): 11.9 µM | GI50 (NCI-H522 lung): 1.8 µM | TGI (NCI-H522 lung): 4.98 µM | GI50 (SK-OV-3 ovarian): 3.02 µM | TGI (SK-OV-3 ovarian): 8.72 µM | GI50 (SK-MEL-28 melanoma): 1.81 µM | TGI (SK-MEL-28 melanoma): 7.28 µM | GI50 (SK-MEL-2 melanoma): 1.88 µM | TGI (SK-MEL-2 melanoma): 6.08 µM | GI50 (A549 NSCLC): 2.89 µM | TGI (A549 NSCLC): 11.1 µM | GI50 (T-47D breast): 2.14 µM | TGI (T-47D breast): 8.18 µM | GI50 (K-562 leukemia): 3.16 µM | TGI (K-562 leukemia): 21.6 µM | GI50 (M14 melanoma): 2.72 µM | TGI (M14 melanoma): 10.3 µM | GI50 (UACC-62 melanoma): 2.4 µM | TGI (UACC-62 melanoma): 8.77 µM | GI50 (MCF7 breast): 3.37 µM | TGI (MCF7 breast): 13.6 µM | GI50 (SR leukemia): 3.07 µM | TGI (SR leukemia): > 100 µM | GI50 (MDA-MB-435): 1.26 µM | TGI (MDA-MB-435): 4.5 µM | GI50 (OVCAR-8 ovarian): 3.09 µM | TGI (OVCAR-8 ovarian): 8.83 µM | GI50 (A498 renal): 2.15 µM | TGI (A498 renal): 5.8 µM | GI50 (COLO 205 colon): 2.45 µM | TGI (COLO 205 colon): 7.22 µM | GI50 (UACC-257 melanoma): 3.22 µM | TGI (UACC-257 melanoma): 9.88 µM | GI50 (CCRF-CEM leukemia): 3.85 µM | TGI (CCRF-CEM leukemia): 18.7 µM | GI50 (MALME-3M melanoma): 4.05 µM | TGI (MALME-3M melanoma): 17.4 µM | GI50 (PC-3 prostate): 2.63 µM | TGI (PC-3 prostate): 10.9 µM | GI50 (DU-145 prostate): 2.57 µM | TGI (DU-145 prostate): 7.02 µM | GI50 (HCT-116 colon): 3.28 µM | TGI (HCT-116 colon): 9.82 µM | GI50 (KM12 colon): 3.15 µM | TGI (KM12 colon): 11.7 µM | GI50 (HCC-2998 colon): 2.17 µM | TGI (HCC-2998 colon): 4.53 µM | GI50 (HCT-15 colon): 2.88 µM | TGI (HCT-15 colon): 10.9 µM | GI50 (SNB-75 CNS): 1.72 µM | TGI (SNB-75 CNS): 5.89 µM | GI50 (SF-295 CNS): 2.16 µM | TGI (SF-295 CNS): 5.75 µM | GI50 (HL-60(TB) leukemia): 3.38 µM

Reference: PubChem BioAssay (NCI)
